Laboratory results published in patent US20220241229A1, “Methods and Compositions for Altering Senescence Associated Secretory Phenotype” (BUCK INSTITUTE FOR RESEARCH ON AGING, priority 2019, published 2022).
“Also recorded” adds a separate entry of the source. Like-named read-outs stand apart in the source and are kept apart here.

What was measured:
IMR-90 fibroblasts = test: Senescence formation in irradiated IMR-90 fibroblasts (SA-β-gal, EdU); assay type: cell-based; conditions: 10 Gy ionizing radiation; 1 mM for 10 days
Protocol: IMR-90 fetal lung fibroblasts were obtained from ATCC and were cultured at 37° C. in 3% O2 and 5% CO2. Dulbecco's modified Eagle's media (DMEM) supplemented with 10% fetal bovine serum and streptomycin/penicillin were used. Media was changed every 2 days during the experiment. For damage-induced senescence, cells were irradiated with doses of either 0 or 10 Gy of ionizing radiation (IR). Cells were concurrently treated with PBS (control) or 1 mM AKG for 10 days, changing media every 2 days. All assays were performed 10 days post irradiation.
Cells were stained for the senescence-associated 3-gal (SA-3-gal) marker as described. Non-senescent cells (having undergone fewer than 35 population doublings) were made quiescent by washing with PBS and incubating in DMEM containing 0.2% serum for 4 day. Cultures that had >80% SA-3-gal positive cells and ≤4% EdU positive cells were considered senescent.

[1] = test system: senescence-associated secretory phenotype (SASP) genes; test: qRT-PCR of SASP genes in irradiated IMR-90 fibroblasts; assay type: cell-based; conditions: 10 Gy ionizing radiation; 1 mM for 10 days
Protocol: For damage-induced senescence, cells were irradiated with doses of either 0 or 10 Gy of ionizing radiation (IR). Cells were concurrently treated with PBS (control) or 1 mM AKG for 10 days, changing media every 2 days. All assays were performed 10 days post irradiation.
RNA quality and quantity were assessed using NanoDrop™ 1000 spectrophotometer measures (Thermo Scientific). Total cDNAs were synthesized from 500 ng of RNA using random primers and iScript RT reagents following the manufacturer's protocol Superscript II (Invitrogen, Carlsbad, USA). Gene expression was measured from cDNA using the Roche Universal Probe Library system (Indianapolis, Ind., USA). All values were normalized to beta-actin.

[2] = test system: inflammatory cytokines and chemokines; test: Inflammatory cytokines and chemokines in serum (multiplex bead array); assay type: in vivo, mice; conditions: for Levels of 30 inflammatory cytokines and chemokines: aged female mice (29 month old) vs. aged control and young
Protocol: The samples were measured for soluble cytokines and chemokines in serum using multiplex bead array technology (MD31).

C57BL6/J mice [3] = conditions: for Incidence and severity of aging phenotypes / morbidity (total frailty score): female and male, Cohort-1, 2% w/w diet from 18 months; for Age-related changes in female coat color / hair discoloration: female mice; for Severity of individual frailty phenotypes: grimace, poor coat condition, gait disorder
Source text: For the subjective properties of the assessments, all measurements were completely blinded. These assessments indicate age-associated deterioration of health and include evaluation of the animal musculoskeletal system, the vestibulocochlear/auditory systems, the ocular and nasal systems, the digestive system, the urogenital system, the respiratory system, signs of discomfort, body weight and body surface temperature. 0 is assigned if no sign of frailty is observed and the animal is healthy for that phenotype. A moderate phenotype and a severe phenotype is scored 0.5 and 1 respectively. Loss of temperature and weight were scored using standard deviation for the study (Table 2). All the phenotypes were scored as described before by Whitehead, J. C., et al., except for temperature and weight. Temperature and weights scoring: Briefly, for weight and temperature, the new scaling scores were used; Average and standard deviations (STDEV) were calculated sex specifically using our own baseline data sets (data collected before the start of the treatment mice at 18th month age). A decrease in temperature or weight (FIG. 3B, and FIG. 3D) within one STDEV is scored as a (0), a decrease bigger than one STDEV but smaller than 2 STDEV will be scored as a (0.5) and any decrease more than 2 STDEV is scored as a (1).
(§1) Python Software was used to extract all the health span data and create files compatible with R software for analysis. Data were analyzed using R, GraphPad Prism 7 and OASIS 2 software. Log-rank (Mantel-Cox) tests were used to analyze Kaplan-Meier curves, and a fisher's exact test was performed for maximum lifespan analysis (at 90% survival). […] Two-way analysis of variance (ANOVA) with Bonferroni post hoc correction was used for analysis between morbidity curves. The area under curve (AUC) of […] graphs were measured baselining at 18 months of age. The changes in AUC were used to calculate the percent compression of morbidity.
In order to assess healthspan, measurements were applied that are based on a clinically relevant frailty index. The frailty index (FI) consists of 31 phenotypes that are indicators of age-associated health deterioration, with each phenotype scored on a 0, 0.5 or 1 scale, based on its severity. Body weight and surface temperature were collected and converted to the same scoring scales (Table 2). All scorings were conducted in a blinded manner.
The 31-metrics share many characteristics of the human frailty indices and has been reported to progress similarly with aging in mice and humans. Measurements were repeated approximately every eight weeks, providing us with eight and seven sets of data respectively for male and female groups. To establish a baseline clinical assessment, a dataset was collected right before the start of the treatment at 18th months (FIG. 4A-FIG. 4D).
Since the age for onset of age-related phenotypes can be quite heterogeneous in mammals, frailty datasets were plotted not only as a function of chronological time, but also in proportion to the lifespan of each mouse by binning scores within ten percentile (e.g. scores collected between 60% and 70% of the animals' lifespans were binned and plotted at 65%), (FIG. 9A-FIG. 9B). This further aligns assessments with respect to the biologic age of the animal.

C57BL6/J mice [4] = conditions: Cohort-1, 2% w/w AKG diet from 18 months of age
Source text: (§2) The principle endpoint of health span and lifespan study was natural death or mice found dead at daily inspection or age at euthanasia (for mice deemed unlikely to survive for next 48 hr and are in enormous discomfort). The criteria for euthanasia were based on an independent assessment by a veterinarian, according to AAALAC guidelines and only where the condition of the animal was considered. Severe lethargy, rapid weight loss (over two weeks>20%), severe distended abdomen and body condition score with signs of pain (grimace), inability to move despite the stimuli, severe ulcer or bleeding tumor, sever temperature loss with abnormal breathing rate. Animal found dead or euthanized was necropsied for pathology score. No invasive measurements were performed on this population, n=180 animals (two cohorts of 90 animals). A sacrificed group were purchased at 14 months of age, baselined and grouped the following week. […] Animals were sacrificed and tissues were collected after 3 months of treatment. Food intake and body weight were measured on a biweekly and bimonthly basis for the duration of the study.
as §1

[5] = Body weight and food consumption; assay type: in vivo, mice
Source text: as §2
Metabolism was measured applying indirect calorimetry. Promethion metabolic cage system-Sable Systems International was used.

C57BL6/J mice [6] = conditions: treated group vs. control
Protocol: Metabolism was measured applying indirect calorimetry. Promethion metabolic cage system-Sable Systems International was used. The system is equipped with GA-3 small mammal gas analyzers for measurements of O2 (consumption) and CO2 (production). Energy expenditure, food intake, water consumption, body weight, physical activity and volunteer exercise were simultaneously recorded over 4 consecutive days (96 hours). Mice were housed individually in metabolic cages and accustomed to their environment a day before the start of recording. Data were analyzed using Sable System Expedata-P Data Analysis Software. Subsequently, CalR software, a free web tool was used for analysis of experiments using indirect calorimetry, to analyze the raw data, generate some plots and run statistical analysis.

[7] = aged mice (29 months old) vs. young and aged control

O=C(O)CCC(=O)C(=O)O [AKG, 2-oxopentanedioic acid]
Senescence formation / senescence growth arrest (IMR-90 fibroblasts): without preventing the senescence growth arrest | Range of inflammatory cytokines (proinflammatory SASP) [1]: lowers the proinflammatory SASP | Levels of 30 inflammatory cytokines and chemokines [2]: general trend of reduction | Level of IL-3 [2, 7]: do not show an increase | Level of IL-7 [2, 7]: do not show an increase | Level of MIP-1β [2, 7]: do not show an increase | Level of TNFα [2, 7]: do not show an increase | Compression of morbidity (proportion of life frail) (C57BL6/J mice [3]; both sexes, total frailty scores vs. percentage of lifespan): compresses the morbidity risk into fewer days of life; also recorded: decreases the proportion of life in which the animal is frail | Incidence and severity of aging phenotypes / morbidity (total frailty score) (C57BL6/J mice [3]): extends healthspan and alleviates age-associated frailty | Age-related changes in female coat color / hair discoloration (C57BL6/J mice [3]): prevents age-associated hair discoloration | Age (days) at 100% (C57BL6/J mice [4]; female): 1116 days | Age (days) at 100% (C57BL6/J mice [4]; male & female): 1173 days | Age (days) at 100% (C57BL6/J mice [4]; male): 1173 days | Body weight preservation (age-related weight loss) ([5]; male mice, second cohort, P value<0.001): preserves body weight; also recorded: better body weight preservation | Food consumption ([5]; measured for 3 consecutive days at 19, 23 and 28 months, AKG fed vs. control): no significance change

O=C([O-])CCC(=O)C(=O)[O-].[Ca+2] [CaAKG, Calcium alpha-ketoglutarate]
Levels of 30 inflammatory cytokines and chemokines [2]: largely refractory to these changes | Level of IL-3 [2, 7]: significant changes | Level of carbon dioxide production (C57BL6/J mice [6]): significantly lower | Level of energy expenditure (C57BL6/J mice [6]): significantly lower | Level of oxygen consumption (C57BL6/J mice [6]): significantly lower | Incidence and severity of aging phenotypes / morbidity (total frailty score) (C57BL6/J mice [3]): decreases incidence and severity of different aging phenotypes and postpones morbidity | Age-related changes in female coat color / hair discoloration (C57BL6/J mice [3]): protection from age-related changes in female coat color was particularly prominent | Total frailty score, health improvement vs. control (C57BL6/J mice [3]; female, P<0.001, P<0.05): significant improvements after 9 months of treatment and again at 11 months post treatment | Gait (C57BL6/J mice [3]; females and males close to median life): Gait improvement | Severity of individual frailty phenotypes (C57BL6/J mice [3]; females: piloerection, alopecia, loss of fur color, grip strength loss, rectal prolapse, body weight loss): significantly decreased | Total frailty score, health improvement vs. control (C57BL6/J mice [3]; male, persisted until last measurement at 33 months of age, P<0.01, P<0.05): significant health improvement after 11 months | Severity of individual frailty phenotypes (C57BL6/J mice [3]; males: grip strength loss, vestibular disturbance, loss of menace reflex, hearing loss, eye discharge, poor body condition, tail stiffening, abnormal breathing rate): significantly decreased the severity of multiple aging phenotypes
